Assay results taken from the NIST ThermoML archive (doi:10.1021/acs.jced.6b00460).

Test: xn = mol fraction of the nth substance listed
Settings: 101 kPa, Liquid; for speed of sound: Sing-around technique in a fixed-path interferometer; for mass density: Vibrating tube method

CCCCCC[n+]1ccc(C)cc1.[Br-] [1-hexyl-4-methylpyridinium bromide] + O
Settings	mass density, 308.15 K [kg/m3]	mass density, 318.15 K [kg/m3]	speed of sound, 308.15 K [m/s]	speed of sound, 318.15 K [m/s]
x2 = 0.0528	1214.12	1207.39	1586.8	1557.9
x2 = 0.1126	1213.44	1206.62	1583.6	1557
x2 = 0.2082	1211.69	1204.8	1579.1	1555.2
x2 = 0.2609	1210.34	1203.43	1575.7	1554.2
x2 = 0.3062	1208.9	1202.01	1573.2	1553.2
x2 = 0.4101	1204.56	1197.72	1568.4	1551.7
x2 = 0.4609	1201.71	1194.91	1565.3	1550.7
x2 = 0.5077	1198.65	1191.88	1563	1549.8
x2 = 0.6089	1189.79	1183.07	1557.2	1547.7
x2 = 0.6539	1184.57	1177.87	1553.3	1546
x2 = 0.7029	1177.58	1170.89	1547.7	1544.7
x2 = 0.7484	1169.44	1162.78	1542.9	1543.5
x2 = 0.8066	1155.56	1148.97	1537.6	1542
x2 = 0.8545	1139.33	1132.88	1533.7	1540.5
x2 = 0.9066	1112.82	1106.74	1529.4	1539.1
x2 = 0.9502	1076.22	1070.75	1524.9	1537.8

CCCCCCCC[n+]1ccccc1.[Br-] [1-octylpyridinium bromide] + O
Settings	mass density, 308.15 K [kg/m3]	mass density, 318.15 K [kg/m3]	speed of sound, 308.15 K [m/s]	speed of sound, 318.15 K [m/s]
x2 = 0.0524	1167.92	1161.5	1507.5	1479.5
x2 = 0.1125	1167.75	1161.26	1508.2	1481.4
x2 = 0.2085	1167.44	1160.87	1509.1	1483.4
x2 = 0.2612	1167.11	1160.51	1509.6	1485
x2 = 0.3065	1166.66	1160.04	1510.1	1486.3
x2 = 0.4098	1164.79	1158.11	1511.2	1489.1
x2 = 0.4611	1163.24	1156.52	1511.8	1490.4
x2 = 0.5075	1161.35	1154.59	1512.2	1492
x2 = 0.6091	1155.07	1148.2	1513.8	1494.8
x2 = 0.6541	1151.03	1144.1	1514.5	1497.2
x2 = 0.7031	1145.4	1138.43	1515.1	1502.2
x2 = 0.7485	1138.7	1131.69	1516	1506.7
x2 = 0.8065	1127.15	1120.15	1516.8	1512.5
x2 = 0.8545	1113.64	1106.77	1517.5	1518
x2 = 0.9065	1091.9	1085.37	1518.2	1523.5
x2 = 0.9503	1062.05	1056.24	1518.8	1529.3

CCCCCC[n+]1ccccc1.[Cl-] [1-hexylpyridinium chloride] + O
Settings	mass density, 308.15 K [kg/m3]	mass density, 318.15 K [kg/m3]	speed of sound, 308.15 K [m/s]	speed of sound, 318.15 K [m/s]
x2 = 0.0598	1146.46	1142.37	1569.2	1548.7
x2 = 0.1085	1146.26	1142.04	1567.4	1548.1
x2 = 0.2068	1145.6	1141.23	1564.8	1547.2
x2 = 0.2492	1145.16	1140.76	1563.9	1546.6
x2 = 0.3024	1144.44	1140.03	1562.9	1546
x2 = 0.4166	1142.05	1137.61	1560.3	1544.8
x2 = 0.4568	1140.82	1136.36	1559.6	1544.1
x2 = 0.5065	1138.92	1134.43	1557.6	1543.4
x2 = 0.6137	1132.92	1128.25	1553.2	1542
x2 = 0.6533	1129.75	1124.99	1550.8	1541.4
x2 = 0.709	1124.03	1119.08	1547.4	1540.6
x2 = 0.7521	1118.2	1113.12	1542.8	1540
x2 = 0.7936	1110.94	1105.73	1539.5	1539.4
x2 = 0.8561	1095.34	1090.02	1534	1538.6
x2 = 0.8966	1080.31	1074.99	1529.9	1538.2
x2 = 0.9528	1046.95	1042	1524.5	1537.2

CCCCCCCC[n+]1ccccc1.[Cl-] [N-octylpyridinium chloride] + O
Settings	mass density, 308.15 K [kg/m3]	mass density, 318.15 K [kg/m3]	speed of sound, 308.15 K [m/s]	speed of sound, 318.15 K [m/s]
x2 = 0.0625	1128.68	1122.77	1483.2	1452.1
x2 = 0.1156	1128.57	1122.56	1484.1	1453.2
x2 = 0.2085	1128.29	1122.18	1485.3	1456.7
x2 = 0.2545	1128.08	1121.95	1486.2	1458.4
x2 = 0.306	1127.76	1121.63	1488	1461.8
x2 = 0.4127	1126.71	1120.54	1491.7	1464.8
x2 = 0.4534	1126.09	1119.9	1493.7	1466.1
x2 = 0.4995	1125.19	1118.95	1495	1469.4
x2 = 0.6103	1121.68	1115.24	1499.8	1473.8
x2 = 0.6508	1119.68	1113.12	1501.8	1477.2
x2 = 0.6962	1116.7	1110.01	1504.9	1481.8
x2 = 0.7542	1111.3	1104.41	1507.1	1487.1
x2 = 0.8086	1103.65	1096.63	1509.4	1493.7
x2 = 0.8512	1094.75	1087.7	1511.3	1497.9
x2 = 0.9009	1078.75	1071.93	1513.2	1505.5
x2 = 0.9485	1052.47	1046.38	1515.5	1515.2

CCCCCC[n+]1ccccc1.[Br-] [1-hexylpyridinium bromide] + O
Settings	mass density, 308.15 K [kg/m3]	mass density, 318.15 K [kg/m3]	speed of sound, 308.15 K [m/s]	speed of sound, 318.15 K [m/s]
x2 = 0.0609	1235	1228.39	1589.8	1556.2
x2 = 0.1184	1234.11	1227.43	1587.3	1555.1
x2 = 0.2091	1232.19	1225.43	1583.4	1553.2
x2 = 0.2544	1230.93	1224.15	1580.7	1552.2
x2 = 0.3097	1229.05	1222.25	1578.7	1551.4
x2 = 0.414	1224.2	1217.39	1574.6	1550
x2 = 0.4533	1221.81	1215.01	1572.9	1549.3
x2 = 0.5028	1218.26	1211.46	1571.8	1548.7
x2 = 0.5928	1209.73	1202.97	1570.1	1547.5
x2 = 0.6486	1202.64	1195.91	1565.9	1547.1
x2 = 0.7138	1191.79	1185.1	1561.6	1546.5
x2 = 0.7554	1182.79	1176.19	1557.1	1545.7
x2 = 0.7995	1170.69	1164.19	1551.1	1545
x2 = 0.8534	1150.45	1144.16	1543.3	1543.3
x2 = 0.9011	1124.03	1118.08	1535.9	1541.3
x2 = 0.9511	1079.2	1073.95	1528.1	1539.1

CCCCCCCC[n+]1ccc(C)cc1.[Cl-] [4-methyl-1-octylpyridinium chloride] + O
Settings	mass density, 308.15 K [kg/m3]	mass density, 318.15 K [kg/m3]	speed of sound, 308.15 K [m/s]	speed of sound, 318.15 K [m/s]
x2 = 0.0612	1107.62	1101.69	1448.6	1417.4
x2 = 0.1098	1107.56	1101.55	1452	1421.5
x2 = 0.2054	1107.52	1101.39	1457.5	1430.4
x2 = 0.2476	1107.46	1101.31	1459.9	1435.3
x2 = 0.3088	1107.3	1101.1	1463.2	1439.9
x2 = 0.4187	1106.44	1100.18	1468.7	1451.7
x2 = 0.4521	1105.97	1099.68	1472.2	1454.6
x2 = 0.5065	1104.89	1098.57	1475.1	1461.8
x2 = 0.6021	1101.75	1095.32	1483.4	1475
x2 = 0.6532	1099.16	1092.65	1487.9	1482.3
x2 = 0.7042	1095.66	1089.07	1492.5	1490.3
x2 = 0.7565	1090.74	1084.09	1497.2	1498.6
x2 = 0.8029	1084.75	1078.06	1501.7	1506.7
x2 = 0.8577	1074.57	1067.97	1505.2	1513.6
x2 = 0.9035	1061.61	1055.25	1510.4	1521.1
x2 = 0.9511	1039.58	1033.92	1514.3	1528.4
